Results on 4 compounds are retold here after publication PMC10268404, “Insight into broad substrate specificity and synergistic contribution of a fungal α-glucosidase in Chinese Nong-flavor daqu” (Microbial Cell Factories, 2023).

The subject of assay [1] is T1, NFAg31A (also printed NFEg31A), product of ORF15963.
T1 construct: 960 aa ORF without 30 aa signal peptide (primer-derived start M-VKHENFKK, end REWRI), incl; C-terminal DUF5100; 6xHis kept, printed C-terminal (but reverse primer holds a stop, so probably N-terminal pET-28a tag); E. coli BL21(DE3)
As to the kind of experiment: HPAEC-PAD of released glucose, Michaelis-Menten fit. It is filed as biochemical. The settings on record: pH 7.0, 45 ℃, 15 min, 0.25 µM enzyme. From the text: HPAEC-PAD of released glucose, Michaelis-Menten fit on NFAg31A (also printed NFEg31A), product of ORF15963

Assay [2] shares this test system. As to the kind of experiment: p-nitrophenol release at […] nm, Michaelis-Menten fit. It counts as biochemical. The settings on record: pH 7.0, 45 ℃, 15 min, 0.25 µM enzyme.

Turning to `OC[C@H]1O[C@H](O[C@H]2[C@H](O)[C@@H](O)C(O)O[C@@H]2CO)[C@H](O)[C@@H](O)[C@@H]1O` (stereo partly shown) [Maltose], the Km (commonly the substrate concentration at which the rate is half of its maximum) in assay [1] was 11.5 ± 0.7 mM.
Turning to `O=[N+]([O-])c1ccc(O[C@H]2O[C@H](CO)[C@@H](O)[C@H](O)[C@H]2O)cc1` [pNPαG, p-Nitrophenyl-α-D-glucopyranoside], the Km in assay [2] stood at 0.55 ± 0.06 mM.
For `OC[C@H]1O[C@H](O[C@H]2C(O)O[C@H](CO)[C@@H](O)[C@@H]2O)[C@H](O)[C@@H](O)[C@@H]1O` (stereo partly shown) [Kojibiose], in assay [1], the Km was 3.9 ± 0.3 mM.
With `OC[C@H]1O[C@H](O[C@H]2[C@H](O)[C@@H](CO)OC(O)[C@@H]2O)[C@H](O)[C@@H](O)[C@@H]1O` (stereo partly shown) [Nigerose], the Michaelis constant (Km) in assay [1] stood at 19.3 ± 2.5 mM.
